pEC50: −log10 of the molar value. “Also recorded” adds a separate entry of the source.
Experiments:
[1] = biological target: T1, alpha-synuclein/Synapsin III interaction (Homo sapiens, UniProt O14994+P37840); test: Acceptor photobleaching FRET of alpha-synuclein/Synapsin III interaction in neuronal-differentiated SK-N-SH cells; format: cell-based; conditions: 10 μM, 15 min; for stimulation of alpha-synuclein/Synapsin III interaction (FRET efficiency), in words: vs basal; for % FRET efficiency change vs MPH-treated cells: vs MPH 10 μM
T1 construct: expressed in transfected cells; host or cells: neuronal-differentiated (retinoic acid) human SK-N-SH neuroblastoma cells, transient transfection with Lipofectamine 3000
Procedure: The ability of the different compound to stimulate alpha-synuclein/Synapsin III interaction was evaluated by acceptor photobleaching FRET or FLIM in neuronal-like cells. In particular, we used neuronal-differentiated SK—N—SH neuroblastoma cells transiently transfected with red fluorescent protein (RFP)-tagged human wild type alpha-synuclein and green fluorescent protein (GFP)-tagged the human 63 kDa Synapsin III isoform.
Acceptor photobleaching FRET microscopy allows an accurate evaluation of protein-protein interaction through the measurement of FRET efficiency. This parameter is indicative of the increase of donor fluorescence after complete photobleaching of the acceptor fluorescence, within a FRET pair of fluorophores (where the emission wavelength of a donor falls within the excitation wavelength of an acceptor). Since FRET efficiency is detectable only when the two fluorophores are sufficiently close to ensure that their linked proteins are interacting, the molecular proximity of these latter results strictly dependent on this parameter^36,37. […] Human neuroblastoma SK—N—SH cells were grown in complete medium comprising Dulbecco's modified Eagle's medium with 1000 mg glucose/l supplemented with 10% heat-inactivated fetal bovine serum, 100 μg/ml penicillin and 100 μg/ml streptomycin. Cells were maintained at 37° C. under a humidified atmosphere of 5% CO2 and […]. For FRET studies, SK—N—SH cells were seeded onto poli-D-lysine-coated 13 mm glass coverslips in 24-well plates (15000 cells per coverslip) and were maintained in differentiation medium for ten days by daily adding 10 μM retinoic acid to the medium. […] Fixed cells were analyzed by means of a Zeiss confocal laser microscope LSM 880 (Carl Zeiss) with the laser set on A=488-543. After identifying double positive cells three-to-six regions of interest (ROI) were analyzed for 4 series. Two images of basal condition (Pre-bleaching) were acquired before bleaching the RFP acceptor fluorophore with laser 543 set at 65% power. Then, other two images were acquired after the bleaching (Post-bleaching). The FRET efficiency (intended as the GFP recovery after RFP photobleaching) was measured by using Zen black software (Carl Zeiss). The average intensity of the background (outside the cell) was subtracted from the average intensity of the ROI and all the FRET values resulting from the different ROI were used for statistical analysis.
Human neuroblastoma SK—N—SH cells were grown in complete medium comprising Dulbecco's modified Eagle's medium with 1000 mg glucose/l supplemented with 10% heat-inactivated fetal bovine serum, 100 μg/ml penicillin and 100 μg/ml streptomycin. Cells were maintained at 37° C. under a humidified atmosphere of 5% CO2 and […]. For FRET studies, SK—N—SH cells were seeded onto poli-D-lysine-coated 13 mm glass coverslips in 24-well plates (15000 cells per coverslip) and were maintained in differentiation medium for ten days by daily adding 10 μM retinoic acid to the medium. […] Fixed cells were analyzed by means of a Zeiss confocal laser microscope LSM 880 (Carl Zeiss) with the laser set on λ=488-543. After identifying double positive cells three-to-six regions of interest (ROI) were analyzed for 4 series. Two images of basal condition (Pre-bleaching) were acquired before bleaching the RFP acceptor fluorophore with laser 543 set at 65% power. Then, other two images were acquired after the bleaching (Post-bleaching). The FRET efficiency (intended as the GFP recovery after RFP photobleaching) was measured by using Zen black software (Carl Zeiss). The average intensity of the background (outside the cell) was subtracted from the average intensity of the ROI and all the FRET values resulting from the different ROI were used for statistical analysis.

[2] = tested on: primary mesencephalic cultures; test: MTT cell viability assay; format: cell-based, mouse; conditions: 24 h
Procedure: The cytotoxic effect of compounds treatment was measured by evaluating mitochondrial dehydrogenase activity using the MTT salt assay.
Neuronal differentiated SK—N—SH cells were thus exposed to different concentrations of I-threo, IV-threo, I-erythro, V-threo and V-erythro as described above, and then used for the MTT cell viability assay.
Animals: C57BL/6J wt mice (C57BL/6J) (Charles River, Wilmington, MA) used in this study, were bred in our animal house facility at the Department of Molecular and Translational Medicine of University of Brescia. Animals were maintained under a 12h light-dark cycle at a room temperature (rt) of 22° C. and had ad libitum food and water. All experiments were made in accordance to Directive 2010/63/EU of the European Parliament and of the Council of 22 Sep. 2010 on the protection of animals used. All experimental and surgical procedures conformed to the National Research Guide for the Care and Use of Laboratory Animals were approved by the Animal Research Committees of the University of Brescia (Protocol Permit 719/2015-PR). All achievements were made to minimize animal suffering and to reduce the number of animals used. Primary neuronal cultures from mesencephalic tissues were dissected from C57BL/6J 13-days embryos. Briefly, after mechanical dissociation the single cells were re-suspended in Neurobasal medium containing 100 μg/ml penicillin, 100 μg/ml streptomycin, 0.5 mM glutamine and 1% B27 supplement. Cells were then centrifuged and cell count and viability assays were performed using the Trypan Blue exclusion test. Cells were seeded onto poly-D-lysine-coated glass coverslides in 24-well plates (14 μg/mL) for immunocytochemistry (100000 cells/well). Cells were maintained at 37° C. under a humidified atmosphere of 5% CO2 and […] for at least 10 days in vitro (DIV 10) prior to their use to allow their maturation. At DIV 10, cells were treated with increasing concentrations (0.01 μM-0.1 μM-1 μM-[…]) of the different compounds (I-threo, IV-threo, I-erythro, V-threo, VI-threo). Twenty-four h after the treatments, culture medium was removed and 300 μL of MTT 0.5 mg/mL diluted in culture medium was added to each well. After 90′ incubation at 37° C., the medium was removed and 250 μL aliquots of DMSO were added to each well to solubilize the formazan crystals. Absorbance was measured at 570 nm using a microplate reader. Cell viability was expressed as absorbance value.

[3] = tested on: advanced Parkinson's disease; conditions: cited from earlier work
[4] = tested on: alpha-synuclein aggregation in SK—N—SH cells; test: Alpha-synuclein aggregation after glucose deprivation in SK-N-SH alpha-synuclein stable clones (immunocytochemistry); format: cell-based, human; conditions: for alpha-synuclein aggregates seen in images after GD: 24 h, vs non-treated (NT) cells, preliminary
Procedure: Human neuroblastoma SK—N—SH full length (fl) alpha-synuclein stable clones were seeded onto poly-D-lysine-coated glass coverslides in 24-well plates and were grown in complete medium comprising Dulbecco's modified Eagle's medium with 1000 mg glucose/l supplemented with 10% heat-inactivated fetal bovine serum, 100 μg/ml penicillin and 100 μg/ml streptomycin. Cells were maintained at 37° C. under a humidified atmosphere of 5% CO2 and […]. At 80% confluence, cells underwent glucose deprivation (GD) in order to induce alpha-synuclein aggregation (Bellucci, A.; et al. Journal of neurochemistry 2008, 106, 560-577). Briefly, GD was performed through an incubation of the cells with Hank's balanced salt solution supplemented with 2 mM glutamine and 10% heat-inactivated fetal bovine serum, for 1 h at 37° C. […] After 24 h of treatment, cells were fixed by incubating for 15 min in 4% paraformaldehyde with 4% sucrose in 1 M PBS, pH 7.4. The fixed cells were then stored in PBS-containing 0.05% sodium azide. Slides were incubated for 1 h at room temperature in blocking solution [2% w/v bovine serum albumin (BSA) plus 3% v/v normal goat serum in PBS], then overnight at 4° C. with the primary antibody (Syn211 antibody against alpha-synuclein) at the optimal working dilution. On the following day, cells were incubated for 1 h at room temperature with the Cy3-conjugated secondary antibody diluted in 0.1% Triton X-100 PBS plus BSA 1 mg/ml. Finally, cell nuclei were counterstained with Hoechst 33258 dye, and the coverslips were mounted onto glass slides using Vectashield.

[5] = tested on: aged human alpha-synuclein transgenic mouse model of Parkinson's disease; conditions: independent of dopamine transporter inhibition; abolished by Synapsin III gene silencing; cited from earlier work
[6] = tested on: alpha-synuclein aggregation in primary mesencephalic neurons; test: Alpha-synuclein aggregation in primary mouse midbrain neurons exposed to glucose deprivation; format: cell-based; conditions: I-threo, VI-threo 50 and 100 nM, MPH 100 nM

T1 sequence (O14994 whole entry, one chain of several): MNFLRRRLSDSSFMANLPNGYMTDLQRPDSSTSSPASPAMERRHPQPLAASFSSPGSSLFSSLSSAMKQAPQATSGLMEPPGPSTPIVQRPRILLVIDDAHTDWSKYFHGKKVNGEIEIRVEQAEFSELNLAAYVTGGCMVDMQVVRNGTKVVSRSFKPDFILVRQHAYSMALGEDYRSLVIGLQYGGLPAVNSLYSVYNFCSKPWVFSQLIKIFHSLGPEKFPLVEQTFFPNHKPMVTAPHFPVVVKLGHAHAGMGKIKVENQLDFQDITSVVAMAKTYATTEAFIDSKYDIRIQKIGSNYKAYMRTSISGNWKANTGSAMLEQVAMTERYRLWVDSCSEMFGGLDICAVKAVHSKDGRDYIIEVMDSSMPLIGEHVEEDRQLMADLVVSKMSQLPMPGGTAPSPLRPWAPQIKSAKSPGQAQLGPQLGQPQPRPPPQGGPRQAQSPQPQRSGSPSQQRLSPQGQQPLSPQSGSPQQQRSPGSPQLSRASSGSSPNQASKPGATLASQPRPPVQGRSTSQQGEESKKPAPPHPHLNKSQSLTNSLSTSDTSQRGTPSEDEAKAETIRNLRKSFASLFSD

COC(=O)[C@@H](c1ccc2ccccc2c1)C1CCCCN1.Cl (stereo partly drawn) [IV-threo]
stimulation of alpha-synuclein/Synapsin III interaction (FRET efficiency), in words [1]: not able to stimulate alpha-synuclein/Synapsin III interaction; also recorded: No significant increase
cell viability (MTT) at 100 μM ([2]; 100 μM): the same profile of I-threo; also recorded: significant decrease in cell viability

COC(=O)[C@@H](Cc1ccc(C)cc1)C1CCCCN1.Cl (stereo partly drawn) [IX-threo]
% FRET efficiency change vs MPH-treated cells [1]: +4.6%

COC(=O)C(c1ccccc1)C1CCCCN1 (stereo not shown) [MPH, Methylphenidate, reference compound]
freezing of gait [3]: efficiently counteract freezing of gait
alpha-synuclein aggregates seen in images after GD ([4]; 10 μM): a reduction in the formation of alpha-synuclein aggregates
pEC50 ([4]; Homo sapiens, SK-N-SH cells, read-out: EC50 in reducing alpha-synuclein aggregation): 4.43
Synapsin III-dependent locomotor activity [5]: over-stimulate a Synapsin III-dependent locomotor activity

COC(=O)[C@@H](c1ccc(-c2ccccc2)cc1)C1CCCCN1.Cl (stereo partly drawn) [V-threo]
stimulation of alpha-synuclein/Synapsin III interaction (FRET efficiency), in words [1]: not able to stimulate alpha-synuclein/Synapsin III interaction; also recorded: No significant increase
concentration from which markedly toxic (MTT) ([2]; 0.01-100 μM tested): ≥ 100 nM
cytotoxicity (MTT), in words ([2]; low concentrations): cytotoxicity at low concentrations

COC(=O)[C@@H](c1ccc(C)cc1)C1CCCCN1C.Cl (stereo partly drawn) [VI-threo, threo methyl 2-(1-methylpiperidin-2-yl)-2-(p-tolyl)acetate hydrochloride]
alpha-synuclein inclusion formation (total immunofluorescence intensity and particle size) [6]: did not reduce alpha-synuclein aggregation
alpha-synuclein aggregates seen in images after GD ([4]; 10 μM): no aggregates were observed
formation of alpha-synuclein inclusions after GD (immunofluorescence intensity and average particle size) ([4]; 10 μM, 24 h after 1 h glucose deprivation, vs untreated, hydrochloride): significantly reduce the formation of alpha-synuclein inclusions; also recorded: significantly reduce alpha-synuclein aggregation in vitro
% FRET efficiency change vs control untreated cells ([1]; neuronally differentiated SK-N-SH cells): +3.4%
toxic effects (MTT) at the working concentrations ([2]; concentrations reducing aggregation or stimulating interaction): did not exhibit toxic effects

COC(=O)[C@@H](Cc1ccccc1)C1CCCCN1.Cl (stereo partly drawn) [VII-threo, threo methyl 3-phenyl-2-(piperidin-2-yl)propanoate hydrochloride]
% FRET efficiency change vs MPH-treated cells [1]: +4.3%

From US12629359B2 (UNIVERSITA' DEGLI STUDI DI BRESCIA, priority 2020, dated 2026)
